# In patent publication US8512707B2, “Methods of treating drug-resistant cancers” (Seattle Genetics, Inc., priority 2006, dated 2013):
# Like-named read-outs stand apart in the source and are kept apart here. Square brackets hold non-standard residues; d marks the D form. Peptide text beside a SMILES is read from it. * marks the point of attachment. Dolaproine = CO[C@@H]([C@@H]1CCCN1)[C@@H](C)C(=O)O; Dil = CC[C@H](C)[C@H](NC)[C@@H](CC(=O)O)OC; X1 = C[C@@H](N*)[C@@H](O)c1ccccc1; NMeV = CN[C@H](C(=O)O)C(C)C
# Tests used:
# [1] = tested on: NCI/ADR-RES cells; experiment: Cell killing by free drugs or MMAF-ADCs with or without verapamil; format: cell-based; conditions: for Fold Difference: IC50 drug alone divided by IC50 drug plus verapamil; for IC50: Homo sapiens
# Experimental: NCI/ADR-RES cells were plated and allowed to adhere. Neat culture medium or medium containing 40 μM verapamil was added, and the cultures were incubated for 4 hr. Serial dilutions of the free drugs (doxorubicin, cisplatin or MMAF) or MMAF ADCs (cBR96-vcMMAF or mOKT9-vcMMAF) were then added. The cultures were incubated to 96 hr and labeled with resazurin. Referring to Table 7, the values are the IC50 in […] (doxorubicin, cisplatin, MMAF) or […] (cBR96-vcMMAF, mOKT9-vcMMAF) determined from 4-parameter curve fits. The fold difference is determined by dividing the IC50 from the drug alone treatment by that of the drug treated plus verapamil cultures.
# [2] = tested on: parental and drug resistant cell line pairs; experiment: Drug sensitivity across the panel of parental/drug resistant cell line pairs; format: cell-based; conditions: for Mean Fold Resistance: average across the cell line panel; for difference in sensitivity of parent and resistant line: statement over all cell line pairs of Table 3
# Experimental: (§1) The following parental and drug resistant cell lines were used to determine their MMAF-drug sensitivity.
# (§2) The activity of various drugs against parental and drug resistant subline pairs was tested. The pairs of cell lines tested were A2780 and A2780adr; MES-SA and MES-SA/Dx5; NCI-H69 and NCI-H69/LX-4; and HL60 and HL60/RV. Cell lines were plated and incubated 24 hr. Culture medium containing serial dilutions of the drugs doxorubicin, vincristine, cisplatin, dolastatin 10 or MMAF were then added. The cultures were incubated to 96 hr and labeled with resazurin. Sensitivity to each drug was measured by determining the IC50 of the parent and drug resistant subline pair. The drug resistance (as “fold resistance”) was determined from the IC50 value of the resistant cell line divided by the IC50 value of the parental line. Mean fold resistance is the average across the cell line panel.
# [3] = tested on: MES-SA and MES-SA/Dx5; experiment: Drug sensitivity of parental and drug resistant subline pair (resazurin); format: cell-based; conditions: IC50 of resistant line divided by IC50 of parental line, 96 hr
# Experimental: as §1, §2
# [4] = tested on: HL60 and HL60/RV; experiment: as above; format: cell-based; conditions: IC50 of resistant line divided by IC50 of parental line, 96 hr
# Experimental: as §1, §2
# [5] = tested on: A2780 and A2780adr; experiment: as above; format: cell-based, human; conditions: IC50 of resistant line divided by IC50 of parental line, 96 hr
# Experimental: as §1, §2
# [6] = tested on: NCI-H69 and NCI-H69/LX-4; experiment: as above; format: cell-based, human; conditions: IC50 of resistant line divided by IC50 of parental line, 96 hr
# Experimental: as §1, §2
# [7] = tested on: HCT-15 (colon carcinoma) cells; experiment: Alteration of drug potency by verapamil, free drugs; format: cell-based; conditions: for Fold Difference: IC50 drug alone divided by IC50 verapamil plus drug, HCT-15; for IC50: HCT-15, drug alone, 96 hr, resazurin
# Experimental: Verapamil is a known inhibitor of the P-gp transporter. The following study was conducted to measure the effect of verapamil on P-gp-mediated transport of doxorubicin, vincristine, cisplatin and MMAF.
# HCT-15 (colon carcinoma) cells were plated and allowed to adhere to the plates. Neat culture medium or medium containing 40 μM verapamil was added, and the cultures were incubated for 4 hr. Serial dilutions of doxorubicin, vincristine, cisplatin or MMAF were then added. The cultures were incubated to 96 hr and labeled with resazurin. Referring to Table 4, the values shown are the IC50 determined from 4-parameter curve fits. The fold difference was determined by dividing the IC50 of the drug alone treatment by that of the verapamil plus drug treated cultures.
# [8] = tested on: H69 and H69/LX4; experiment: Cytotoxic effects on H69 and its P-glycoprotein overexpressing counterpart; format: cell-based, human; conditions: free drugs, 6 days, Alamar Blue (FIG. 2A, 2B)
# Experimental: (§3) Log phase cultures of cells were collected and cells plated at seeding densities ranging from 500-10,000 cells/well according to pre-determined conditions. After incubating 24 h to allow surface protein reconstitution, serial dilutions of test molecules were added and cultures incubated a further 4-6 days depending on cell line. Assessment of cellular growth and data reduction to generate IC50 values was done using Alamar Blue (Biosource International, Camarillo, Calif.) dye reduction assay as previously described, according to previously published methods (Doronina et al., supra; Hamblett et al., supra; Law et al., 2004, Clin. Cancer Res. 10:7842-51; Francisco et al., supra). Briefly, a 40% solution (wt/vol) of Alamar Blue was freshly prepared in complete media just before cultures were added. Ninety-two hours after drug exposure, Alamar Blue solution was added to cells to constitute 10% culture volume. Cells were incubated for 4 h, and dye reduction was measured on a Fusion HT fluorescent plate reader (Packard Instruments, Meriden, Conn.).
# [9] = tested on: HCT-15 (colon carcinoma) cells; experiment: Alteration of drug potency by verapamil, free drugs; format: cell-based; conditions: read-out: IC50 +10 μM Verapamil, HCT-15, verapamil 4 hr before drug, 96 hr, resazurin
# [10] = tested on: Caki-1 renal cell carcinoma; experiment: In vitro growth inhibition (Alamar Blue); format: cell-based; conditions: Table 8, free auristatins, 96 h
# Experimental: as §3
# [11] = tested on: H3396 breast carcinoma cells; experiment: In vitro growth inhibition (Alamar Blue); format: cell-based; conditions: Table 8, free auristatins, 96 h
# Experimental: as §3
# [12] = tested on: 786-O renal cell carcinoma; experiment: In vitro growth inhibition (Alamar Blue); format: cell-based; conditions: Table 8, free auristatins, 96 h
# Experimental: as §3
# [13] = Maximum tolerated dose of free drugs in mice; format: in vivo; conditions: free drug
# Description: The synthesis of MMAE proceeded through a solution-phase route involving the coupling of the amino-protected N-terminal trimer to the C-terminal dimer. Due to the convergent nature of the process, it was possible to produce a large number of auristatins with varied solubilities, potencies and pharmacokinetic properties. […] MMAF-OMe is a prodrug of MMAF (FIG. 1), with the potential of having facilitated intracellular uptake due to the presence of a neutral C-terminus. In addition, intracellular ester hydrolysis of MMAF-OMe should rapidly generate MMAF, a C-terminally charged molecule expected to have impaired membrane translocation capabilities. […] In addition, the maximum tolerated dose in mice of MMAF (>16 mg/kg) was much higher than MMAE (1 mg/kg). Thus, MMAF was of great interest for targeted delivery, since the free drug had attenuated potency, lower toxicity, and much higher aqueous solubility compared to MMAE. Facilitated intracellular transport was expected to greatly enhance its activity.
# [14] = tested on: hematologic cell lines; conditions: previously displayed (Doronina et al.; Law et al.); cited from earlier work
# [15] = tested on: Karpas 299 cells; experiment: In vitro growth inhibition (Alamar Blue); format: cell-based, human; conditions: 96 h
# Experimental: as §3
# [16] = tested on: WSU-NHL; experiment: In vitro growth inhibition (Alamar Blue), CD30 negative line; format: cell-based, human; conditions: 96 h, ADC concentrations represented by the drug component
# Experimental: as §3
# (§4) Cells were exposed to the ADCs continuously for 96 h, and the cytotoxic effects, as determined by Alamar Blue conversion, were compared to those of free MMAF.
# [17] = tested on: panel of CD30 positive and negative hematologic cell lines; experiment: In vitro growth inhibition, panel of hematologic cell lines; format: cell-based; conditions: mean over the lines of Table 9; ADC concentrations represented by the drug component; read-out: IC50 Mean (all lines)
# Experimental: as §3, §4
# [18] = Aqueous solubility; format: physicochemical
# [19] = tested on: HDLM-2; experiment: In vitro growth inhibition (Alamar Blue); format: cell-based, human; conditions: 96 h, ADC concentrations represented by the drug component
# Experimental: as §3, §4
# [20] = tested on: KMH-2; experiment: In vitro growth inhibition (Alamar Blue); format: cell-based, human; conditions: 96 h, ADC concentrations represented by the drug component
# Experimental: as §3, §4
# [21] = tested on: SU-DHL-1; experiment: In vitro growth inhibition (Alamar Blue); format: cell-based, human; conditions: 96 h, ADC concentrations represented by the drug component
# Experimental: as §3, §4
# [22] = tested on: L428; experiment: In vitro growth inhibition (Alamar Blue); format: cell-based, human; conditions: 96 h, ADC concentrations represented by the drug component
# Experimental: as §3, §4
# [23] = tested on: SUP-M2; experiment: In vitro growth inhibition (Alamar Blue); format: cell-based, human; conditions: 96 h, ADC concentrations represented by the drug component
# Experimental: as §3, §4
# [24] = tested on: SR-786; experiment: In vitro growth inhibition (Alamar Blue); format: cell-based, human; conditions: 96 h, ADC concentrations represented by the drug component
# Experimental: as §3, §4
# [25] = tested on: DEL; experiment: In vitro growth inhibition (Alamar Blue); format: cell-based, human; conditions: 96 h, ADC concentrations represented by the drug component
# Experimental: as §3, §4
# [26] = tested on: RPMI 6666; experiment: In vitro growth inhibition (Alamar Blue); format: cell-based; conditions: 96 h, ADC concentrations represented by the drug component
# Experimental: as §3, §4
# [27] = tested on: HH; experiment: In vitro growth inhibition (Alamar Blue); format: cell-based; conditions: 96 h, ADC concentrations represented by the drug component
# Experimental: as §3, §4
# [28] = tested on: L540cy; experiment: In vitro growth inhibition (Alamar Blue); format: cell-based; conditions: 96 h, ADC concentrations represented by the drug component
# Experimental: as §3, §4
Compound,Fold Difference [1] [fold],Mean Fold Resistance [2] [fold],Fold Resistance MES-SA/Dx5 / MES-SA [3] [fold],Fold Resistance HL60/RV / HL60 [4] [fold],Fold Resistance A2780adr / A2780 [5] [fold],Fold Resistance NCI-H69/LX4 / NCI-H69 [6] [fold],Fold Difference [7],IC50 [10] [nM],IC50 [11] [nM],IC50 [12] [nM],"IC50 ([15]; Table 8, free auristatins) [nM]",other results
N.N.[Cl][Pt][Cl] [Cisplatin],0.88,5.5,1.6,13,2.7,4.7,1.04 fold,–,–,–,–,difference in sensitivity of parent and resistant line [2]: thirteen
CC[C@H](C)[C@@H]([C@@H](CC(=O)N1CCC[C@H]1[C@H](OC)[C@@H](C)C(=O)N[C@@H](Cc1ccccc1)c1nccs1)OC)N(C)C(=O)[C@@H](NC(=O)[C@H](C(C)C)N(C)C)C(C)C [Dolastatin 10],–,>500,8275,–,500,–,–,–,–,–,–,–
COc1cccc2c1C(=O)c1c(O)c3c(c(O)c1C2=O)C[C@@](O)(C(=O)CO)C[C@@H]3O[C@H]1C[C@H](N)[C@H](O)[C@H](C)O1 [Doxorubicin],17.9,88,83,24,137,103,5.4 fold,–,–,–,–,"IC50 ([1]; 96 h, read-out: IC50 Drug or ADC Only): 10000 nM; IC50 ([1]; read-out: IC50 (Drug or ADC) + 10 μM Verapamil): 560 nM; fold less sensitive H69/LX-4 compared to the parental cell [8]: approximately 100 fold; IC50 ([7]; Homo sapiens): 335 nM; IC50 ([9]; Homo sapiens): 62 nM"
"CC[C@H](C)[C@@H]([C@@H](CC(=O)N1CCC[C@H]1[C@H](OC)[C@@H](C)C(=O)N[C@H](C)[C@@H](O)c1ccccc1)OC)N(C)C(=O)[C@@H](NC(=O)[C@@H](NC)C(C)C)C(C)C [MMAE, reference compound] (H-[NMeV]V[Dil][Dolaproine]-X1)",–,–,–,–,–,–,–,0.7,0.1,2,0.5,maximum tolerated dose in mice [13]: 1 mg/kg; IC50 [14]: 1 to 5 nM
"CC[C@H](C)[C@@H]([C@@H](CC(=O)N1CCC[C@H]1[C@H](OC)[C@@H](C)C(=O)N[C@@H](Cc1ccccc1)C(=O)O)OC)N(C)C(=O)[C@@H](NC(=O)[C@@H](NC)C(C)C)C(C)C [MMAF, N-methylvaline-valine-dolaisoleuine-dolaproline-phenylalanine] (H-[NMeV]V[Dil][Dolaproine]F-OH)",6.4,5,3,6,7.5,4,5.7 fold,200,105,257,119,fold less sensitive H69/LX-4 compared to the parental cell [8]: 3 fold; IC50 [16]: 60.3 nM; maximum tolerated dose in mice [13]: > 16 mg/kg; difference in sensitivity of parent and resistant line [2]: thirteen; IC50 [17]: 70.4 nM; aqueous solubility compared to MMAE [18]: much higher; IC50 [19]: 66 nM; IC50 [20]: 45.4 nM; IC50 [21]: 34.7 nM; IC50 [22]: 68 nM; IC50 [23]: 79.7 nM; IC50 [24]: 38.1 nM; IC50 [25]: 69 nM; IC50 [7]: 1000 nM; IC50 [26]: 164 nM; IC50 [27]: 30.7 nM; IC50 [28]: 70.4 nM; IC50 ([15]; ADC concentrations represented by the drug component): 119 nM; IC50 [9]: 174 nM
CC[C@H](C)[C@@H]([C@@H](CC(=O)N1CCC[C@H]1[C@H](OC)[C@@H](C)C(=O)N[C@@H](Cc1ccccc1)C(=O)OC)OC)N(C)C(=O)[C@@H](NC(=O)[C@@H](NC)C(C)C)C(C)C [MMAF-OMe] (H-[NMeV]V[Dil][Dolaproine]F-OMe),–,–,–,–,–,–,–,< 0.001,< 0.001,0.01,< 0.001,–
CC[C@]1(O)C[C@H]2CN(CCc3c([nH]c4ccccc34)[C@@](C(=O)OC)(c3cc4c(cc3OC)N(C=O)[C@H]3[C@@](O)(C(=O)OC)[C@H](OC(C)=O)[C@]5(CC)C=CCN6CC[C@]43[C@@H]65)C2)C1 [Vincristine],–,>260,284,258,2000,56888,">10,000 fold",–,–,–,–,IC50 ([7]; Homo sapiens): 70 nM; IC50 ([9]; Homo sapiens): < 0.001 nM
